Data set [1] in a line: physchem. The settings on record: pH 7.4, aqueous buffer, kinetic from dmso stock. On the procedure: The kinetic solubility of test compounds in buffer was evaluated using a 96 well filtration plate format. A 500 μM assay solution in PBS, pH7.4 (or other assay buffer, as needed) was generated form a DMSO stock solution (up to 10 mM). Samples were transferred to a 96 Millipore MultiScreen HTS 96-well Filter plate (Cat# MSSLBPC10) mixed by shaking for 1.5 hours and processed by filtration prior to quantitation by HPLC-UV. Amiodarone and testosterone were used as reference controls.

Data set [2] has as its target T1, human farnesoid X receptor (Homo sapiens, UniProt Q96RI1).
T1 construct: CMX-farnesoid X receptor (full length human farnesoid X receptor); expressed in transfected cells; host or cells: CV-1 African Green Monkey Kidney cells
T1 sequence (Q96RI1 1-472 isoform Q96RI1-2): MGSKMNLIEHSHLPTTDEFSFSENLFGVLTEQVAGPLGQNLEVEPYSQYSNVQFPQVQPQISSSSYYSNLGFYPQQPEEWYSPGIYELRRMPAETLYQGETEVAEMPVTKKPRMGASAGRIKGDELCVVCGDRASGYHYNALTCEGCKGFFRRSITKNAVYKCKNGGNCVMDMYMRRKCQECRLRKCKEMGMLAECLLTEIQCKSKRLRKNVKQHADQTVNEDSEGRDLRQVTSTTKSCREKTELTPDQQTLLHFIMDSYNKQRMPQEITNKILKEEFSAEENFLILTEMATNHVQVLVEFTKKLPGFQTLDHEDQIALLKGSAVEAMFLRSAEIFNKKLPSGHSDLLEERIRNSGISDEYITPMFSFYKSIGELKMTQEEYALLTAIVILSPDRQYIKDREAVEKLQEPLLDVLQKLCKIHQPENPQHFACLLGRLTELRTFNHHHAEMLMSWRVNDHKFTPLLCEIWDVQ
T1 sequence (P19793 1-462 partner): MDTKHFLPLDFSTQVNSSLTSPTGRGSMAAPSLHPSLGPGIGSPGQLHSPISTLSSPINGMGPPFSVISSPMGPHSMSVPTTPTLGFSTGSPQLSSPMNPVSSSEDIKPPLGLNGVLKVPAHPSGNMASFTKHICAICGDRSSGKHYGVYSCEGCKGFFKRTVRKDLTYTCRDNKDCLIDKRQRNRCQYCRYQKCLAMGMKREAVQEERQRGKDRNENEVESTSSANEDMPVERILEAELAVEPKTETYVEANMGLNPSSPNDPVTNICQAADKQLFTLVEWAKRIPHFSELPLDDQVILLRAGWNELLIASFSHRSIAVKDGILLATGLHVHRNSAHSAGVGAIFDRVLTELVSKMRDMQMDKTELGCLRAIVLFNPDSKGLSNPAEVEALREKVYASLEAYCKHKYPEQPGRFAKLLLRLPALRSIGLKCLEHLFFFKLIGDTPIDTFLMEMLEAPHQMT
Briefly: FXR in vitro assays (farnesoid X receptor/ECREx7 co-transfection assay, TR-FRET assay), Table I. The class given is cell-based. The settings on record: for EC50: agonist activity, one or more of the in vitro assays, read-out: EC50; for Emax: read-out: % Efficacy. In outline: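 CV-1 monkey kidney cells transfected for an FXR/ECREx7 luciferase co-transfection reporter; luciferase read 18-20 h later in lysates. 8-point dose-response at ½-log spacing, 4 wells per point; EC50/IC50 from four-parameter Hill fit, averaged over at least 3 independent experiments.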
A general note: TR-FRET usually uses a lanthanide donor and a delayed reading to cut background.

For orientation: kinetic solubility means solubility judged after dilution from a stock solution rather than from solid. What is called EC50 is the concentration at which the effect is half-maximal.

In brackets after ≈: the same amount, converted by molar mass.

For the molecule `CC(C)CCC(=O)N1C=C(C(=O)OC(C)C)c2[nH]c3ccccc3c2C(C)(C)C1` [Example 34, 1-methylethyl 1,1-dimethyl-3-(4-methylpentanoyl)-1,2,3,6-tetrahydro azepino [4,5-b]indole-5-carboxylate], in data set [1], the kinetic solubility at 1.5 h was above 10 µM. Besides, in data set [2], the EC50 is 10 to 100 nM and the Emax is above 100%.
For `CC(C)OC(=O)C1=CN(C(=O)c2cccc(Cl)c2)CC(C)(C)c2c1[nH]c1ccccc21` [Example 81, 1-methylethyl 3-[(3-chlorophenyl)carbonyl]-1,1-dimethyl-1,2,3,6-tetrahydroazepino[4,5-b]indole-5-carboxylate], in that order: 1 to 10 µM (≈ 0.437 to 4.37 µg/mL), 10 to 100 nM and above 100%.
For `CC(C)OC(=O)C1=CN(C(=O)c2ccc3c(c2)OCO3)CC(C)(C)c2c1[nH]c1ccccc21` [Example 80, 1-methylethyl 3-(1,3-benzodioxol-5-ylcarbonyl)-1,1-dimethyl-1,2,3,6-tetrahydroazepino[4,5-b]indole-5-carboxylate], in that order: 1 to 10 µM (≈ 0.447 to 4.47 µg/mL), 10 to 100 nM and above 100%.
For `CC(C)OC(=O)C1=CN(C(=O)N2CCC(N3CCN(C)CC3)CC2)CC(C)(C)c2c1[nH]c1ccccc21` [Example 41, 1-methylethyl 1,1-dimethyl-3{[4-(4-methylpiperazin-1-yl)piperidin-1-yl]carbonyl}-1,2,3,6-tetrahydroazepino [4,5-b]indole-5-carboxylate] the same measures were above 10 µM, 1000 to 10000 nM and 40 to 60%.
On to `CC(C)NC(=O)C1CN(C(=O)c2ccc(F)c(F)c2)CC(C)(C)c2c1[nH]c1ccccc21` (stereo not drawn) [Example 90, 3-[(3,4-difluorophenyl)carbonyl]-1,1-dimethyl-N-(1-methylethyl)-1,2,3,4,5,6-hexahydroazepino[4,5-b]indole-5-carboxamide], for which the solubility (kinetic) at 1.5 h in data set [1] was above 10 µM. Further, in data set [2], the EC50 lay in the range of 1000 to 10000 nM and the Emax was above 100%.
For `CC(C)OC(=O)C1=CN(C(=O)N2C[C@@H]3C[C@H]2CN3C)CC(C)(C)c2c1[nH]c1ccccc21` [Example 42, 1-methylethyl 1,1-dimethyl-3-{[(1S,4S)-5-methyl-2,5-diazabicyclo[2.2.1]hept-2-yl]carbonyl}-1,2,3,6-tetrahydroazepino [4,5-b]indole-5-carboxylate], in that order: above 10 µM, 100 to 1000 nM and above 100%.
For `CC(C)OC(=O)C1=CN(C(=O)c2ccccc2C(F)(F)F)CC(C)(C)c2c1[nH]c1ccccc21` [Example 64, 1-methylethyl 1,1-dimethyl-3-{[2-(trifluoromethyl)phenyl]-carbonyl}-1,2,3,6-tetrahydroazepino[4,5-b]indole-5-carboxylate] the same measures were 1 to 10 µM (≈ 0.47 to 4.7 µg/mL), 10 to 100 nM and above 100%.
For `CCCNC(=O)N1C=C(C(=O)OC(C)C)c2[nH]c3ccccc3c2C(C)(C)C1` [Example 23, 1-methylethyl 1,1-dimethyl-3-[(propylamino)carbonyl]-1,2,3,6-tetrahydroazepino[4,5-b]indole-5-carboxylate] the same measures were 1 to 10 µM (≈ 0.383 to 3.83 µg/mL), 100 to 1000 nM and above 100%.
Turning to `CC(C)OC(=O)C1=CN(C(=O)N2CCCC(N(C)C)C2)CC(C)(C)c2c1[nH]c1ccccc21` (stereo not drawn) [Example 39, 1-methylethyl 3-{[3-(dimethylamino)piperidin-1-yl]carbonyl}-1,1-dimethyl-1,2,3,6-tetrahydroazepino[4,5-b]indole-5-carboxylate], in data set [1], the solubility (kinetic) at 1.5 h was above 10 µM. In data set [2], the EC50 fell in the range of 100 to 1000 nM and the Emax is above 100%.
For `CC(C)OC(=O)C1=CN(C(=O)c2ccc(C(F)(F)F)cc2F)CC(C)(C)c2c1[nH]c1ccccc21` [Example 131, 1-methylethyl 3-{[2-fluoro-4-(trifluoromethyl)phenyl]car-bonyl}-1,1-dimethyl-1,2,3,6-tetrahydroazepino[4,5-b]indole-5-carboxylate], in that order: above 10 µM, 100 to 1000 nM and above 100%.
For `CC(C)OC(=O)C1=CN(C(=O)N2CCC[C@H](CN3CCOCC3)C2)CC(C)(C)c2c1[nH]c1ccccc21` [Example 57, 1-methylethyl 1,1-dimethyl-3-{[(3R)-3-(morpholin-4-ylmethyl)piperidin-1-yl]carbonyl}-1,2,3,6-tetrahydroazepino [4,5-b]indole-5-carboxylate] the same measures were above 10 µM, 1000 to 10000 nM and above 100%.
On to `CC(C)OC(=O)C1=CN(C(=O)c2ccc(F)c(F)c2)CC(C)(C)c2c1[nH]c1cc(OC(=O)OC(C)(C)C)ccc21` [Example 96, 1-methylethyl 3-[(3,4-difluorophenyl)carbonyl]-8-({[(1,1-dimethylethyl)oxy]carbonyl}oxy)-1,1-dimethyl-1,2,3,6-tetrahydroazepino[4,5-b]indole-5-carboxylate], for which, in data set [1], the kinetic solubility at 1.5 h fell in the range of 1 to 10 µM (≈ 0.555 to 5.55 µg/mL). Besides, in data set [2], the EC50 was 10 to 100 nM and the Emax is above 100%.
For `CCN1CCN(C(=O)N2C=C(C(=O)OC(C)C)c3[nH]c4cc(F)ccc4c3C(C)(C)C2)CC1` [Example 36, 1-methylethyl 3-[(4-ethylpiperazin-1-yl)carbonyl]-8-fluoro-1,1-dimethyl-1,2,3,6-tetrahydroazepino[4,5-b]indole-5-carboxylate], in that order: above 10 µM, 10 to 100 nM and above 100%.
For `CCN1CCN(C(=O)N2C=C(C(=O)OC(C)C)c3[nH]c4ccccc4c3C(C)(C)C2)CC1` [Example 25, 1-methylethyl 3-[(4-ethylpiperazin-1-yl)carbonyl]-1,1-dimethyl-1,2,3,6-tetrahydroazepino[4,5-b]indole-5-carboxylate] the same measures were above 10 µM, 10 to 100 nM and above 100%.
`CC(C)OC(=O)C1=CN(C(=O)NC2CCCCC2)CC(C)(C)c2c1[nH]c1ccccc21` [Example 45, 1-methylethyl 3-[(cyclohexylamino)carbonyl]-1,1-dimethyl-1,2,3,6-tetrahydroazepino[4,5-b]indole-5-carboxylate] returned a kinetic solubility at 1.5 h in data set [1] of 1 to 10 µM (≈ 0.424 to 4.24 µg/mL). Moreover, in data set [2], the EC50 was in the range of 10 to 100 nM and the Emax is above 100%.
For `CC(C)OC(=O)C1=CN(C(=O)c2cccc(O)c2)CC(C)(C)c2c1[nH]c1ccccc21` [Example 139, 1-methylethyl 3-[(3-hydroxyphenyl)carbonyl]-1,1-dimethyl-1,2,3,6-tetrahydroazepino[4,5-b]indole-5-carboxylate] the same measures were 1 to 10 µM (≈ 0.418 to 4.18 µg/mL), 10 to 100 nM and above 100%.
In data set [1], `CC(C)OC(=O)C1=CN(C(=O)N2CCC[C@@H](N3CCCCC3)C2)CC(C)(C)c2c1[nH]c1ccccc21` [Example 60, 1-methylethyl 3-[(3′R)-1,3′-bipiperidin-1′-ylcarbonyl]-1,1-dimethyl-1,2,3,6-tetrahydroazepino[4,5-b]indole-5-carboxylate] came in with a kinetic solubility at 1.5 h above 10 µM. For the same molecule, in data set [2], the EC50 fell in the range of 1000 to 10000 nM and the Emax is 60 to 80%.

The record behind these values is patent US20090203577A1 (EXELIXIS, INC., priority 2005, published 2009).
